{"source": "patent US12029751B2", "about": "“Therapeutic agent for nervous system disease” (OSAKA UNIVERSITY, priority 2017, dated 2024)", "key": {"[1]": {"test_system": "cerebral cortical neurons", "assay": "TUNEL assay, apoptosis inhibiting effect on cerebral cortical neurons", "format": "cell-based, rat", "conditions": "after 18 hours", "from_the_text": "Cerebral cortical neurons were collected and cultured by a conventional method. Cerebral cortex was dissected from a fetus of a Sprague-Dawley (SD) rat (18th day of pregnancy) and recovered in ice-cooled Dulbecco's Modified Eagle Medium (DMEM) containing 10% fetal bovine serum (FBS) and 1% penicillin/streptomycin. The pia mater and blood vessels were removed, and the remaining cerebral cortex was transferred to DMEM (containing 1% penicillin/streptomycin and no FBS) and cut into small pieces having a size of 1 mm by surgical scissors. Papain (final concentration, 2 mg/ml) was added to the cell mixture, and the mixture was allowed to react at 37° C. for 30 minutes. DNase I (70 U/ml) was added to the reaction mixture and reaction was carried out for 30 seconds. Then, DMEM containing 10% FBS and 1% penicillin/streptomycin was added to terminate the reaction. The cell mixture was centrifuged at 800 rpm, the residue was re-suspended in DMEM containing 10% FBS and 1% penicillin/streptomycin, and the suspension was seeded on a dish coated with poly-L lysine (PLL). At 4 hours after the cell seeding, the medium was replaced with Neurobasal medium (containing 10% B27 supplement and 1% penicillin/streptomycin).\nTo the cerebral cortical neurons (Example 1-1) cultured on a PLL-coated 8-well chamber slide, 20 mM glutamic acid and […] methylcobalamin (MeCbl) were added. After 18 hours, the proportion of apoptotic cells was evaluated using Promega's DeadEnd Fluorometric TUNEL System. Cells were fixed with 4% paraformaldehyde (PFA) at 4° C. for 25 minutes. After cells were permeabilized with 0.2% Triton X-100 for 5 minutes, an incubation buffer was added, and the mixture was left stand at 37° C. with light shielding for 60 minutes to label the permeabilized cells. The nuclei were labeled with 4′6-diamidino-2-phenylindole (DAPI). The total cell number and the number of TUNEL-positive cells were determined."}, "[2]": {"test_system": "Mouse macrophage cell line J774A.1", "assay": "Immunohistological evaluation of iNOS-positive (M1) and Arg1-positive (M2) macrophages", "format": "cell-based", "conditions": "for percentage of M2 macrophages (percentage of Arg1-positive cells): 72 hours; for percentage of M1 macrophages (percentage of iNOS-positive cells): 24 hours", "procedure": "Mouse macrophage cell line J774A.1 (JCRB9108) was purchased from JCRB Cell Bank (Laboratory of Cell Cultures), Osaka, Japan. Cells were cultured in DMEM containing 10% FBS and 1% penicillin/streptomycin.\nThe J774A.1 cells (Example 5-1) were seeded on a dish having a diameter of 6 cm. After 4 days, cells were fixed with 4% PFA for 20 minutes. Blocking was performed for 30 minutes, and the cells were allowed to react with primary antibodies at 4° C. overnight. The cells were further allowed to react with a secondary antibody at room temperature for 1 hour so that the nuclei were labeled with DAPI. To detect the M1 marker iNOS, LPS (100 ng/ml) and methylcobalamin were added at 24 hours before fixing the cells. To detect the M2 marker Arg1, IL-4 (20 ng/ml) and methylcobalamin were added at 72 hours before fixing the cells.\nThe primary antibodies used were a rabbit anti-iNOS monoclonal antibody (Abeam) and a rabbit anti-Arg1 polyclonal antibody (Santa Cruz). The secondary antibody used was an Alexa 488-labeled goat anti-rabbit IgG antibody (Life Technologies) or an Alexa 568-labeled goat anti-rabbit IgG antibody (Life Technologies)."}, "[3]": {"test_system": "rat spinal cord injury model", "assay": "BBB score in rat spinal cord injury model (lateral hemisection model)", "format": "in vivo", "conditions": "1 mg/kg/day osmotic minipump; for BBB score: left lower extremity", "procedure": "Six-week-old female Wistar rats were used. The rats were purchased from Charles River Laboratories Japan, Inc. (Yokohama, Japan). Anesthesia was performed as follows. A 1:10 dilution of a mixture of three anesthetic agents in physiological saline was administered by intraperitoneal injection. One dose consisted of 0.2 mg/kg of midazolam, 0.015 mg/kg of medetomidine, and 0.25 mg/kg of butorphanol. The rat was placed in a prone position on an operating table, and a dorsal midline incision was made. The T10 vertebral arch was removed to expose the posterior face of the spinal cord, and the left spinal cord was hemisected using a sharp-pointed surgical scalpel (spitz mess). The skin was sutured using a 4-0 nylon thread and the surgery was completed. A comparison was made among three groups: a methylcobalamin treatment group, an untreated group, and a sham group. Immediately after the surgical operation, an osmotic minipump filled with methylcobalamin (1 mg/kg/day) or physiological saline was placed for the methylcobalamin treatment group and the untreated group, respectively, and left in the left dorsal subcutaneous space. The sham group underwent only resection of the Th10 vertebral arch.\nEach rat was separately accommodated in a cage, allowed to walk freely, and observed for 5 minutes. According to a conventional method, left-lower-extremity function was evaluated using scores of 0 (no locomotion) to 21 (normal locomotion). The evaluations were performed before surgery, and at 1, 7, 14, 21, and 28 days after the surgery."}}, "data": [{"smiles": "C/C1=C2/[N-][C@H]([C@H](CC(N)=O)[C@@]2(C)CCC(=O)NC[C@@H](C)OP(=O)([O-])O[C@H]2[C@@H](O)[C@@H](n3cnc4cc(C)c(C)cc43)O[C@@H]2CO)[C@]2(C)N=C(/C(C)=C3N=C(/C=C4N=C1[C@@H](CCC(N)=O)C\\4(C)C)[C@@H](CCC(N)=O)[C@]\\3(C)CC(N)=O)[C@@H](CCC(N)=O)[C@]2(C)CC(N)=O.[CH3-].[Co+3]", "note": "[MeCbl, methylcobalamin]", "values": [{"measurement": "proportion of apoptotic cells", "setting": "[1]; 20 mM glutamic acid + methylcobalamin", "value": 5.6, "unit": "%"}, {"measurement": "proportion of apoptotic cells", "setting": "[1]; 20 mM glutamic acid + methylcobalamin, listed as methylcobalamin", "value": "significantly decreased to the level of the control"}, {"measurement": "proportion of apoptotic cells", "setting": "[1]; MeCbl alone (Glutamate −), methylcobalamin", "value": 5.9, "unit": "%"}, {"measurement": "percentage of M2 macrophages (percentage of Arg1-positive cells)", "setting": "[2]; IL-4 20 ng/ml + MeCbl 1 nM", "value": 10.90, "unit": "%"}, {"measurement": "percentage of M2 macrophages (percentage of Arg1-positive cells)", "setting": "[2]; IL-4 20 ng/ml + MeCbl 10 nM", "value": 18.57, "unit": "%"}, {"measurement": "percentage of M2 macrophages (percentage of Arg1-positive cells)", "setting": "[2]; IL-4 20 ng/ml + MeCbl 100 nM", "value": 18.95, "unit": "%"}, {"measurement": "percentage of M2 macrophages (percentage of Arg1-positive cells)", "setting": "[2]; IL-4 20 ng/ml + MeCbl 1 μM", "value": 19.32, "unit": "%"}, {"measurement": "percentage of M2 macrophages (percentage of Arg1-positive cells)", "setting": "[2]; IL-4 20 ng/ml + MeCbl 10 μM", "value": 15.24, "unit": "%"}, {"measurement": "percentage of M2 macrophages (percentage of Arg1-positive cells)", "setting": "[2]; IL-4 20 ng/ml + MeCbl 100 μM", "value": 10.61, "unit": "%"}, {"measurement": "percentage of M2 macrophages (percentage of Arg1-positive cells)", "setting": "[2]; IL-4 20 ng/ml + MeCbl 1 mM", "value": 9.49, "unit": "%"}, {"measurement": "proportion of cells positive for the M2 marker Arg1 as compared to IL-4 alone", "setting": "[2]; IL-4 + 10 nM to 1 μM methylcobalamin", "value": "significantly increased"}, {"measurement": "percentage of M1 macrophages (percentage of iNOS-positive cells)", "setting": "[2]; LPS 100 ng/ml + MeCbl 1 nM", "value": 16.64, "unit": "%"}, {"measurement": "percentage of M1 macrophages (percentage of iNOS-positive cells)", "setting": "[2]; LPS 100 ng/ml + MeCbl 10 nM", "value": 9.57, "unit": "%"}, {"measurement": "percentage of M1 macrophages (percentage of iNOS-positive cells)", "setting": "[2]; LPS 100 ng/ml + MeCbl 100 nM", "value": 7.26, "unit": "%"}, {"measurement": "percentage of M1 macrophages (percentage of iNOS-positive cells)", "setting": "[2]; LPS 100 ng/ml + MeCbl 1 μM", "value": 3.42, "unit": "%"}, {"measurement": "percentage of M1 macrophages (percentage of iNOS-positive cells)", "setting": "[2]; LPS 100 ng/ml + MeCbl 10 μM", "value": 11.45, "unit": "%"}, {"measurement": "percentage of M1 macrophages (percentage of iNOS-positive cells)", "setting": "[2]; LPS 100 ng/ml + MeCbl 100 μM", "value": 10.34, "unit": "%"}, {"measurement": "percentage of M1 macrophages (percentage of iNOS-positive cells)", "setting": "[2]; LPS 100 ng/ml + MeCbl 1 mM", "value": 17.57, "unit": "%"}, {"measurement": "proportion of cells positive for the M1 marker iNOS as compared with LPS alone", "setting": "[2]; LPS + 10 nM to 100 μM methylcobalamin", "value": "significantly decreased"}, {"measurement": "methylcobalamin concentration at peak of switch from M1 to M2", "setting": "[2]; immunofluorescent staining", "value": "around 100 nM"}, {"measurement": "BBB score", "setting": "[3]; 0 days after surgery (before surgery)", "value": 21}, {"measurement": "left-lower-extremity motor function (BBB score) as compared to the untreated group", "setting": "[3]; 14, 21, and 28 days after the surgery", "value": "significantly improved"}, {"measurement": "BBB score", "setting": "[3]; 1 day after surgery", "value": 0.17}, {"measurement": "BBB score", "setting": "[3]; 7 days after surgery", "value": 8.33}, {"measurement": "BBB score", "setting": "[3]; 14 days after surgery", "value": 15.50}, {"measurement": "BBB score", "setting": "[3]; 21 days after surgery", "value": 16.33}, {"measurement": "BBB score", "setting": "[3]; 28 days after surgery", "value": 17}]}]}
